Experimental data taken from PubChem BioAssay (NCI).
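Exposure lasted 48 hours, with cells grown in 96-well plates and compounds tested at five concentrations. GI50 = concentration required for 50% inhibition of growth. TGI is the concentration that stops growth completely.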

Columns and labels:
Test in all cases: NCI-60 cell line screen, 48 h
SF-268 CNS = test system: SF-268 CNS
786-0 renal = test system: 786-0 renal
LOX IMVI melanoma = test system: LOX IMVI melanoma
NCI/ADR-RES ovarian = test system: NCI/ADR-RES ovarian
HOP-62 NSCLC = test system: HOP-62 NSCLC
MALME-3M melanoma = test system: MALME-3M melanoma
OVCAR-3 ovarian = test system: OVCAR-3 ovarian
NCI-H23 lung = test system: NCI-H23 lung
HS 578T breast = test system: HS 578T breast
RXF 393 renal = test system: RXF 393 renal
HCT-116 colon = test system: HCT-116 colon
SK-MEL-2 melanoma = test system: SK-MEL-2 melanoma
M14 melanoma = test system: M14 melanoma
UACC-257 melanoma = test system: UACC-257 melanoma
NCI-H522 lung = test system: NCI-H522 lung
CCRF-CEM leukemia = test system: CCRF-CEM leukemia
HOP-92 NSCLC = test system: HOP-92 NSCLC
SW-620 colon = test system: SW-620 colon
MCF7 breast = test system: MCF7 breast
RPMI-8226 leukemia = test system: RPMI-8226 leukemia
UACC-62 melanoma = test system: UACC-62 melanoma
A549 NSCLC = test system: A549 NSCLC
A498 renal = test system: A498 renal
SK-OV-3 ovarian = test system: SK-OV-3 ovarian
BT-549 breast = test system: BT-549 breast
U251 CNS = test system: U251 CNS
EKVX NSCLC = test system: EKVX NSCLC
UO-31 renal = test system: UO-31 renal
CAKI-1 renal = test system: CAKI-1 renal
IGROV1 ovarian = test system: IGROV1 ovarian

Cc1cccc(/C=C/c2ccc(NC(=S)NCCCCN(C)C)cc2)c1 gave a GI50 (SF-268 CNS) of 13.8 µM, a TGI (SF-268 CNS) of 28.5 µM and a GI50 (786-0 renal) of 14.9 µM. The TGI (786-0 renal) was 30.1 µM, the GI50 (LOX IMVI melanoma) was 11.6 µM and the TGI (LOX IMVI melanoma) was 25.4 µM. The GI50 (NCI/ADR-RES ovarian) was 16.3 µM, the TGI (NCI/ADR-RES ovarian) was 32.3 µM and the GI50 (HOP-62 NSCLC) was 19 µM. For the same molecule, the TGI (HOP-62 NSCLC) was 37.9 µM, the GI50 (MALME-3M melanoma) was 15.8 µM and the TGI (MALME-3M melanoma) was 29.6 µM. The GI50 (OVCAR-3 ovarian) was 12.7 µM, the TGI (OVCAR-3 ovarian) was 26.1 µM and the GI50 (NCI-H23 lung) was 16.1 µM. For the same molecule, the TGI (NCI-H23 lung) was 31.2 µM, the GI50 (HS 578T breast) was 16.6 µM and the TGI (HS 578T breast) was 38.4 µM. For the same molecule, the GI50 (RXF 393 renal) was 11.3 µM, the TGI (RXF 393 renal) was 24.2 µM and the GI50 (HCT-116 colon) was 11 µM. It also gave a TGI (HCT-116 colon) of 29.6 µM, a GI50 (SK-MEL-2 melanoma) of 18.5 µM and a TGI (SK-MEL-2 melanoma) of 34.9 µM. The GI50 (M14 melanoma) was 15.4 µM, the TGI (M14 melanoma) was 31.6 µM and the GI50 (UACC-257 melanoma) was 18.1 µM. It also gave a TGI (UACC-257 melanoma) of 34.8 µM, a GI50 (NCI-H522 lung) of 15.9 µM and a TGI (NCI-H522 lung) of 33.5 µM. For the same molecule, the GI50 (CCRF-CEM leukemia) was 11.7 µM, the TGI (CCRF-CEM leukemia) was 37.3 µM and the GI50 (HOP-92 NSCLC) was 8.39 µM. It also gave a TGI (HOP-92 NSCLC) of 24.3 µM, a GI50 (SW-620 colon) of 14.8 µM and a TGI (SW-620 colon) of 29.5 µM. For the same molecule, the GI50 (MCF7 breast) was 11.8 µM, the TGI (MCF7 breast) was 27.5 µM and the GI50 (RPMI-8226 leukemia) was 20.1 µM. For the same molecule, the TGI (RPMI-8226 leukemia) was 72.4 µM, the GI50 (UACC-62 melanoma) was 15.9 µM and the TGI (UACC-62 melanoma) was 29.6 µM. The GI50 (A549 NSCLC) was 18.4 µM, the TGI (A549 NSCLC) was 39.8 µM and the GI50 (A498 renal) was 13.5 µM. For the same molecule, the TGI (A498 renal) was 27.4 µM, the GI50 (SK-OV-3 ovarian) was 19.7 µM and the TGI (SK-OV-3 ovarian) was 36.4 µM. It also gave a GI50 (BT-549 breast) of 15.3 µM, a TGI (BT-549 breast) of 29.9 µM and a GI50 (U251 CNS) of 16.1 µM. It also gave a TGI (U251 CNS) of 33.7 µM, a GI50 (EKVX NSCLC) of 16.2 µM and a TGI (EKVX NSCLC) of 31.2 µM. For the same molecule, the GI50 (UO-31 renal) was 14.2 µM, the TGI (UO-31 renal) was 27.3 µM and the GI50 (CAKI-1 renal) was 14.5 µM. The TGI (CAKI-1 renal) was 27.9 µM and the GI50 (IGROV1 ovarian) was 16.6 µM.
